Data from ChEMBL document CHEMBL6121052, “Design of ROS-Triggered Sesquiterpene Lactone SC Prodrugs as TrxR1 Covalent Inhibitors for the Treatment of Non-Small Cell Lung Cancer” (J Med Chem, 2025).
Activity calls are given as the source filed them. The rule behind the calls is not given here.

What was measured:
A549 [1] = assay: Cytotoxicity against human A549 cells assessed as cell viability incubated for 48 hrs by MTT assay; format: functional, cell-based; settings: A549, 48 h
[2] = Volume of distribution at steady state in male Sprague-Dawley rat at 10 mg/kg, iv measured upto 24 hrs by LC-MS/MS analysis; format: ADME, organism-based; settings: in vivo, read-out: Vdss
[3] = Toxicity in BALB/c mouse assessed as change in viscera index at 5 to 10 mg/kg, po administered every 2 days for 2 weeks; format: organism-based; settings: in vivo, 336 h, dose 5-10 mg/kg
[4] = Tmax in male Sprague-Dawley rat at 10 mg/kg, iv measured upto 24 hrs by LC-MS/MS analysis; format: ADME, organism-based; settings: in vivo
[5] = Half life in male Sprague-Dawley rat at 10 mg/kg, iv measured upto 24 hrs by LC-MS/MS analysis; format: ADME, organism-based; settings: in vivo
NCI-H1299 [6] = assay: Induction of apoptosis in human NCI-H1299 cells assessed as increase in Bax expression at upto 10 uM incubated for 24 hrs by Western blot analysis; format: functional, cell-based
NCI-H1299 [7] = assay: Induction of apoptosis in human NCI-H1299 cells assessed as necrotic cells at 5 uM measured after 48 hrs by Annexin V/FITC staining based flow cytometric analysis (reference value: 0.62%); format: functional
NCI-H1299 [8] = assay: Cytotoxicity against human NCI-H1299 cells assessed as cell viability incubated for 48 hrs by MTT assay; format: functional, cell-based; settings: NCI-H1299, 48 h
[9] = target: T1, Thioredoxin reductase 1, cytoplasmic (Homo sapiens) (UniProt Q16881); assay: Inhibition of TrxR1 in human A549 cells; format: cell-based; settings: dose <= 10.0 µM
T1 sequence (whole entry): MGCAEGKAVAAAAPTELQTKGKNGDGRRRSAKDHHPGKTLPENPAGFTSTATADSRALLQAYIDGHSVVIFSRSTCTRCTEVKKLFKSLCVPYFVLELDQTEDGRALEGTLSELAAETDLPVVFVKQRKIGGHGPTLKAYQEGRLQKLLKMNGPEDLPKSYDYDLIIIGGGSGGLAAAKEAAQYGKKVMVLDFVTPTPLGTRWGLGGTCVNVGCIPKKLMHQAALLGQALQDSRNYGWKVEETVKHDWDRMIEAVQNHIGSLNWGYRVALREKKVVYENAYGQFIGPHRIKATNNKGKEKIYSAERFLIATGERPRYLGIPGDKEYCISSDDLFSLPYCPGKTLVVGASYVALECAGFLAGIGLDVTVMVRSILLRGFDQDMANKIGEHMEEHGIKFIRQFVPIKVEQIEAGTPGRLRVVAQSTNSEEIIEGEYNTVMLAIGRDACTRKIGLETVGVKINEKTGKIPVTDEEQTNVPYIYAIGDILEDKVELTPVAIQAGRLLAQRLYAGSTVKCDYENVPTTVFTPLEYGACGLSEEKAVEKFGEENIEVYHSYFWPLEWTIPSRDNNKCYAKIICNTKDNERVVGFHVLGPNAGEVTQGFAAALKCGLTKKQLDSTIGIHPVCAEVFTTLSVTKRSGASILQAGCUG

[10] = Clearance in male Sprague-Dawley rat at 10 mg/kg, iv measured upto 24 hrs by LC-MS/MS analysis; format: ADME, organism-based; settings: in vivo
A549 [11] = assay: Induction of apoptosis in human A549 cells assessed as late apoptotic cells at 5 uM measured after 48 hrs by Annexin V/FITC staining based flow cytometric analysis (reference value: 5.37%); format: functional
A549 [12] = assay: Induction of apoptosis in human A549 cells assessed as necrotic cells at 5 uM measured after 48 hrs by Annexin V/FITC staining based flow cytometric analysis (reference value: 2.52 %); format: functional
A549 [13] = assay: Induction of intracellular ROS generation in human A549 cells upto 10 uM by DCFH-DA probe based fluorescence assay; format: functional, cell-based
NCI-H1299 [14] = assay: Induction of apoptosis in human NCI-H1299 cells assessed as late apoptotic cells at 2.5 uM measured after 48 hrs by Annexin V/FITC staining based flow cytometric analysis (reference value: 1.96%); format: functional
NCI-H1299 [15] = assay: Induction of apoptosis in human NCI-H1299 cells assessed as late apoptotic cells at 5 uM measured after 48 hrs by Annexin V/FITC staining based flow cytometric analysis (reference value: 1.96%); format: functional
A549 [16] = assay: Induction of ROS accumulation in human TrxR1 knockdown A549 cells incubated for 24 hrs; format: functional, cell-based
A549 [17] = assay: Induction of morphological changes in human A549 cells assessed as decrease in cell density upto 10 uM by AO/EB staining based analysis; format: functional
NCI-H1299 [18] = assay: Induction of apoptosis in human NCI-H1299 cells assessed as viable cells at 5 uM measured after 48 hrs by Annexin V/FITC staining based flow cytometric analysis (reference value: 96.3%); format: functional; settings: read-out: Activity
NCI-H1299 [19] = assay: Induction of apoptosis in human NCI-H1299 cells assessed as early apoptotic cells at 2.5 uM measured after 48 hrs by Annexin V/FITC staining based flow cytometric analysis (reference value: 1.14 %); format: functional
NCI-H1299 [20] = assay: Antitumor activity against human NCI-H1299 cells xenografted in BALB/c mouse assessed as reduction in tumor volume at 5 to 10 mg/kg, po administered every 2 days for 2 weeks; format: functional, organism-based; settings: dose 5-10 mg/kg
A549 [21] = assay: Induction of apoptosis in human A549 cells assessed as necrotic cells at 2.5 uM measured after 48 hrs by Annexin V/FITC staining based flow cytometric analysis (reference value: 2.52 %); format: functional
[22] = AUC (0 to infinity) in male Sprague-Dawley rat at 10 mg/kg, iv measured upto 24 hrs by LC-MS/MS analysis; format: ADME, organism-based; settings: in vivo
A549 [23] = assay: Induction of morphological changes in human A549 cells assessed as increase in number of contracted shapes upto 10 uM; format: functional, cell-based
A549 [24] = assay: Induction of apoptosis in human A549 cells assessed as viable cells at 2.5 uM measured after 48 hrs by Annexin V/FITC staining based flow cytometric analysis (reference value: 90.8 %); format: functional; settings: read-out: Activity
A549 [25] = assay: Antiproliferative activity against human A549 cells assessed as increase in cell viability in presence of NAC; format: functional, cell-based
NCI-H1299 [26] = assay: Antitumor activity against human NCI-H1299 cells xenografted in BALB/c mouse assessed as reduction in tumor weight at 5 to 10 mg/kg, po administered every 2 days for 2 weeks; format: functional, organism-based; settings: dose 5-10 mg/kg
[27] = target: T1, Thioredoxin reductase 1, cytoplasmic (Homo sapiens); assay: Inhibition of TrxR1 in human NCI-H2291 cells; format: cell-based; settings: dose <= 10.0 µM
NCI-H1299 [28] = assay: Induction of ferroptosis in human NCI-H1299 cells assessed as increase in intracellular LPO accumulation at 5 uM incubated for 24 hrs by flow cytometry analysis; format: functional, cell-based
NCI-H1299 [29] = assay: Induction of morphological changes in human NCI-H1299 cells assessed as increase in number of contracted shapes upto 10 uM; format: functional, cell-based
A549 [30] = assay: Induction of apoptosis in human A549 cells assessed as viable cells at 10 uM measured after 48 hrs by Annexin V/FITC staining based flow cytometric analysis (reference value: 90.8 %); format: functional; settings: read-out: Activity
NCI-H1299 [31] = assay: Induction of morphological changes in human NCI-H1299 cells assessed as decrease in cell density upto 10 uM by AO/EB staining based analysis; format: functional
A549 [32] = assay: Inhibition of colony formation in human A549 cells assessed as reduction in colony number at 4 uM incubated for 14 days by crystal violet staining based analysis; format: functional, cell-based; settings: time 14.0 day

For `CCCNC(=O)O[C@@H]1/C=C(\C)C[C@H]2C=C(C[C@@H]3OC(=O)[C@H](CSC(=S)N(C)C)[C@H]31)C(=O)O2`, the IC50 (A549 [1]) was 1.74 µM, the Vd [2] was 57.6 L/kg and the Activity [3] was “Non-toxic”. The Tmax [4] was 1.98 min, the half-life [5] was 3.85 h and the Activity (NCI-H1299 [6]) was “Active”. The Activity (NCI-H1299 [7]) was 1.45%, the IC50 (NCI-H1299 [8]) was 4.68 µM and the inhibition [9] was “Dose-dependent-effect”. The clearance [10] was 9.74 L/h/kg, the Activity (A549 [11]) was 16.1% and the Activity (A549 [12]) was 3.5%. For the same compound, the Activity (A549 [13]) was “Active”, the Activity (NCI-H1299 [14]) was 7.41% and the Activity (NCI-H1299 [15]) was 15.6%. For the same compound, the Activity (A549 [16]) was “Active”, the Activity (A549 [17]) was “Active” and the viability at 5 µM (NCI-H1299 [18]) was 72.7%. The Activity (NCI-H1299 [19]) was 1.67%, the Activity (NCI-H1299 [20]) was “Active” and the Activity (A549 [21]) was 4.09%. The AUC(0-inf) [22] was 1.08 µg·h/mL, the Activity (A549 [23]) was “Active” and the viability at 2.5 µM (A549 [24]) was 87.7%. For the same compound, the Activity (A549 [25]) was “Active”, the Activity (NCI-H1299 [26]) was “Active” and the inhibition [27] was “Dose-dependent-effect”. For the same compound, the Activity (NCI-H1299 [28]) was “Active”, the Activity (NCI-H1299 [29]) was “Active” and the viability at 10 µM (A549 [30]) was 68.8%. The Activity (NCI-H1299 [31]) was “Active” and the inhibition (A549 [32]) was “Active”.
